In US6521653B2 (priority 1995, dated 2003):
≈ marks a conversion by molar mass, not a printed value.

The compounds below were run on Aspergillus niger (assay: Material protection test (MIC on malt extract agar)). Conditions: 336 h, two weeks at 28° C., 60 to 70% relative humidity, read-out: Minimal inhibitory concentration (MIC value) Aspergillus niger.
Assay type: cell-based
Procedure: (§1) active compounds of the invention are added at concentrations of 0.1 mg/l to 5000 mg/l to an agar prepared with malt extract. After the agar has solidified, it is infected with pure cultures of Penicillium brevicaule, Chaetomium globosum and Aspergillus niger. After storage for two weeks at 28° C. and 60 to 70% relative humidity, the minimal inhibitory concentration (MIC value) is determined. The MIC value characterizes the lowest concentration of active compound at which there is no growth of the microbial species used.
`Cc1noc(C)c1C(=O)n1nnc2cc3c(cc21)OC(F)(F)C(F)(F)O3` showed an MIC of 400 µg/mL (≈ 1070 µM). `Cc1oncc1S(=O)(=O)n1nnc2cc3c(cc21)OC(F)(F)C(F)(F)O3` [drawing 93] showed an MIC of 200 µg/mL (≈ 507 µM).

These compounds were tested on Chaetomium globosum in the same assay as above. Conditions: 336 h, two weeks at 28° C., 60 to 70% relative humidity, read-out: Minimal inhibitory concentration (MIC value) Chaetomium globosum.
Assay type: cell-based
Procedure: as §1
Compound `Cc1noc(C)c1C(=O)n1nnc2cc3c(cc21)OC(F)(F)C(F)(F)O3` has an MIC of 100 µg/mL (≈ 269 µM). In the case of `Cc1oncc1S(=O)(=O)n1nnc2cc3c(cc21)OC(F)(F)C(F)(F)O3` [drawing 93], the MIC is reported as 100 µg/mL (≈ 254 µM).

What follows are compounds tested on Penicillium brevicaule in the same assay as above. Conditions: 336 h, two weeks at 28° C., 60 to 70% relative humidity, read-out: Minimal inhibitory concentration (MIC value) Penicillium brevicaule.
Assay type: cell-based
Procedure: as §1
`Cc1noc(C)c1C(=O)n1nnc2cc3c(cc21)OC(F)(F)C(F)(F)O3` gave an MIC of 200 µg/mL (≈ 537 µM). `Cc1oncc1S(=O)(=O)n1nnc2cc3c(cc21)OC(F)(F)C(F)(F)O3` [drawing 93] was tested, and the MIC was 200 µg/mL (≈ 507 µM).

What follows are compounds tested on Phytophthora infestans (assay: whole plant or invertebrate). Conditions: Phytophthora infestans, in Solanum lycopersicum, 72 h, read-out: Efficiency in %, based on the untreated control at an active compound concentration of 50 ppm.
Assay type: in vivo
With `Cc1noc(C)c1S(=O)(=O)n1nnc2ccccc21` the pest or weed control at 50 ppm was 97%. Work on `Cc1oncc1S(=O)(=O)n1nnc2c(Br)cc(C(F)(F)F)cc21` yielded a pest or weed control at 50 ppm of 98%. For `Cc1onc(N)c1S(=O)(=O)n1nnc2cc3c(cc21)OC(F)(F)O3`, the pest or weed control at 50 ppm was 97%. Work on `Cc1ccc2c(c1)nnn2S(=O)(=O)c1c(C)noc1C` yielded a pest or weed control at 50 ppm of 97%. `Cc1noc(C)c1S(=O)(=O)n1nnc2cc([N+](=O)[O-])ccc21` gave a pest or weed control at 50 ppm of 100%. Work on `Cc1noc(C)c1S(=O)(=O)n1nnc2cc(Cl)ccc21` yielded a pest or weed control at 50 ppm of 100%. `Cc1onc(N)c1S(=O)(=O)n1nnc2cc(Cl)ccc21` was tested, and the pest or weed control at 50 ppm was 97%. Compound `Cc1noc(C)c1S(=O)(=O)n1nnc2cc3c(cc21)OC(F)(F)C(F)(F)O3` [drawing 100] has a pest or weed control at 50 ppm of 95%. `Cc1noc(C)c1S(=O)(=O)n1nnc2cc3c(cc21)OC(F)(F)O3` [drawing 101] was tested, and the pest or weed control at 50 ppm was 99%. In the case of `Cc1noc(C)c1S(=O)(=O)n1nnc2c(Br)cc(C(F)(F)F)cc21` [drawing 102], the pest or weed control at 50 ppm is reported as 89%. `Cc1oncc1S(=O)(=O)n1nnc2cc3c(cc21)OC(F)(F)O3` [drawing 103] showed a pest or weed control at 50 ppm of 100%.

Same assay, conditions: tomato, protective spray, 100 ppm, evaluation 3 days after inoculation
In the case of `Cc1noc(C)c1S(=O)(=O)n1nnc2cc3c(cc21)OC(F)(F)C(F)(F)O3` [drawing 95], the “Efficiency in %, based on the untreated control at an active compound concentration of 100 ppm” value (from here on “Efficiency in %, based”) is reported as 94%. `Cc1noc(C)c1S(=O)(=O)n1nnc2cc3c(cc21)OC(F)(F)O3` [drawing 96] was tested, and the “Efficiency in %, based” value was 94%. For `Cc1noc(C)c1S(=O)(=O)n1nnc2c(Br)cc(C(F)(F)F)cc21` [drawing 97], the “Efficiency in %, based” value was 95%. In the case of `Cc1oncc1S(=O)(=O)n1nnc2cc3c(cc21)OC(F)(F)C(F)(F)O3` [drawing 98], the “Efficiency in %, based” value is reported as 94%. `Cc1oncc1S(=O)(=O)n1nnc2cc3c(cc21)OC(F)(F)O3` [drawing 99] was tested, and the “Efficiency in %, based” value was 99%.

These compounds were tested on Plasmopara viticola (assay: Plasmopara test (grapevines)/protective). Conditions: protective spray, evaluation 6 days after inoculation.
Assay type: in vivo
Procedure: Plasmopara Test (Grapevines)/Protective
Solvent: 4.7 parts by weight of acetone
Emulsifier: 0.3 parts by weight of alkylaryl polyglycol ether
To obtain an expedient preparation of active compound, 1 part by weight of active compound is mixed with the amounts of solvent and emulsifier cited and the concentrate is diluted with water to the desired concentration.
To test for protective activity, young plants are sprayed with the active compound preparation until dew moist. After the sprayed coating has dried on, the plants are inoculated with an aqueous spore suspension of Plasmopara viticola and then remain for 1 day in a moist chamber at 20 to 22° C. and 100% relative humidity. The plants are then set up for 5 days in a greenhouse at 21° C. and approximately 90% relative humidity. The plants are then moistened and placed in a moist chamber for 1 day.
The evaluation is performed 6 days after the inoculation. In the evaluation, 0% denotes an efficiency corresponding to that of the untreated control, while an efficiency of 100% denotes that no contamination is observed.
`Cc1noc(C)c1S(=O)(=O)n1nnc2cc3c(cc21)OC(F)(F)C(F)(F)O3` [drawing 111] was tested, and the “Efficiency in %, based” value was 100%. In the case of `Cc1noc(C)c1S(=O)(=O)n1nnc2cc3c(cc21)OC(F)(F)O3` [drawing 112], the “Efficiency in %, based” value is reported as 100%. For `Cc1oncc1S(=O)(=O)n1nnc2cc3c(cc21)OC(F)(F)C(F)(F)O3` [drawing 113], the “Efficiency in %, based” value was 100%. For `Cc1oncc1S(=O)(=O)n1nnc2cc3c(cc21)OC(F)(F)O3` [drawing 114], the “Efficiency in %, based” value was 100%.
